The values that follow come from patent US20070110743A1, “Methods of protein production using anti-senescence compounds” (Wyeth, priority 2005, published 2007).

The conditions of data set [1]: addition of the chemical agent to the culture; cited from earlier work.
The test system of data set [2] is MYO-29 cell line. The data set can be described thus: Carnosine addition to 1 L fed-batch bioreactor cell culture (Example 2). It is filed as cell-based. The following applies: 20 mM carnosine added day 4. The method, then: Five bioreactors were inoculated with 0.9×10^6 cells/ml with a 1 L working volume of a MYO-29 cell line in a serum free inoculation medium. All the bioreactors were fed 5% (v/v) of a feed medium on days 3, 5, 7, and 12 of a 14-day run. A day 10 feed of 5% (v/v) of the feed medium was added to two of the control bioreactors and one containing carnosine. The conditions of the bioreactors were held at a temperature of 37° C., a pH of 7.00, and a dissolved oxygen level at 30% air saturation.
The bioreactors were harvested on day 14 of the production run. Samples were taken throughout the run to monitor the progress of the cell culture medium. The controls performed as expected.

For data set [3], the system named is MYO-29 cell line. The data set can be described thus: Different concentrations of carnosine in 1 L bioreactor cell culture (Example 3). It is filed as cell-based. As to the method: Four bioreactors were inoculated with 0.4×10^6 cells/ml with a 1 L working volume of a MYO-29 cell line in a serum free inoculation medium. All the bioreactors were all fed 5% (v/v) of a feed medium on day 7 of the 14-day run. The conditions of the bioreactor were held at a temperature of 37° C., a pH of 7.00, and a dissolved oxygen level at 30% air saturation.
All cells were cultured for four days at which point the temperature was shifted in all of the bioreactors to 31° C. […] All bioreactors were harvested on day 12 of the production run. Samples were taken throughout the run to monitor the progress of the cell culture medium. The controls performed generally as expected, except one control had slightly lower daily viabilities than previously seen.

For data set [4], the system named is human diploid fibroblasts and human fetal lung (primary cell lines). To be noted: concentration of 20 mM in culture media; cited from earlier work.
In data set [5] the test system is human or rodent transformed and neoplastic cells. To be noted: cited from earlier work.

On to `CCCC(=O)[O-].[Na+]` [sodium butyrate], for which, in data set [1], the “cell growth and viable cell number” value was “cell growth ceases and the viable cell number decreases”.
For `NCCC(=O)N[C@@H](Cc1cnc[nH]1)C(=O)O` [carnosine], the “cumulative specific cellular productivity” value was “better” in data set [2] (14-day run) and “higher” in data set [3] (40 mM carnosine added day 4). Moreover, the “daily titer at the time of harvest” value in data set [2] (harvest day 14) is listed as “higher titer”. In addition, the “daily cell viability upon being harvested” value in data set [2] (harvest day 14, compared to bioreactors without carnosine) is on record as “higher”; in data set [3] (20 mM or 40 mM carnosine added day 4, harvest day 12, compared to two control bioreactors) it was “higher viability”. In data set [3] (20 mM or 40 mM carnosine added day 4, compared with one of the controls), the daily titer entry is “similar”. Besides, the “daily viable cell density” value in data set [3] (20 mM or 40 mM carnosine added day 4, versus controls) is recorded as “fairly similar with the exception of the bioreactor with 4 mM of carnosine”. Moreover, in data set [4], the lifespan of cells result is “extend the lifespan”. For the same molecule, the cytotoxic effects entry in data set [5] (dialyzed fetal calf serum with low molecular weight compounds removed) is “increased the cytotoxic effects”. In addition, the cytotoxicity result in data set [5] (in Minimal Essential Medium (MEM), lower glucose levels) was “cytotoxic”.
